# Patent US8598374B2, “GPR120 receptor agonists and uses thereof” (Metabolex, Inc, priority 2008, dated 2013)
# Molecular target: T1, human GPR120 (Homo sapiens, UniProt Q5NUL3)
# T1 construct: Flag (DYKDDDDK) (N); host or cells: HEK293 cells co-expressing Gqi5
# T1 sequence (Q5NUL3 1-361): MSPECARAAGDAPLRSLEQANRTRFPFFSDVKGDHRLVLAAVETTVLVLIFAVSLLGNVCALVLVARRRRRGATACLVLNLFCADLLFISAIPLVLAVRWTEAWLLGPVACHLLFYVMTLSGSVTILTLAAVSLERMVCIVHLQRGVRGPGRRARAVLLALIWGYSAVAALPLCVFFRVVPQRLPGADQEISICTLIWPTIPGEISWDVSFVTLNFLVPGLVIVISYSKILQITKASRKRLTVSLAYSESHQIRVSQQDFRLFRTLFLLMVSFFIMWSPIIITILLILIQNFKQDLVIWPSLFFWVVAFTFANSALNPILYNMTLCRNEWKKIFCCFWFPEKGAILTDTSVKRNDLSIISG
# Test: Intracellular Ca2+ assay (FLIPR Calcium 4, Flexstation) in human GPR120 stable cell line
# Assay type: cell-based
# Conditions: % activity at 2.5 μM compared to the maximal activity of the compound of Example 25 at 2.5 μM; HEK293 cells co-expressing Gqi5
# Description: Human GPR120 stable cell line was purchased from Multispan Inc (26219 Eden Landing Road, Hayward, Calif. 94545). This GPR120 cell line was generated in HEK293 cells co-expressing Gqi5. In this cell line, the Flag epitope tag (DYKDDDDK) was fused to the amino terminus of human GPR120 protein.
# The concentration of intracellular Ca^2+ was measured as described below. Human GPR120 cells were plated in 96 well plates (Poly-D-Lysine coated black/clear Plate, Greiner Bio-One) at 70,000 cells per well and cultured overnight in conditions of 37° C. and 5% CO2. A Ca^2+ assay dye stock solution was prepared by adding 10 mL of assay buffer (HBSS/20 mM HEPES, pH 7.4) to FLIPR Calcium 4 Assay Bulk Kit (Molecular Devices). The 10 mL of Ca^2+ assay dye solution was prepared by further diluting 0.5 mL of Ca^2+ assay dye stock solution with 10 mL of assay buffer. The medium of the cells was removed and immediately 100 μL of the Ca^2+ assay dye solution was dispensed into each well followed by incubation at 37° C. and 5% CO2 for 50 minutes to incorporate the Ca^2+ dye into the cells. The cell plate was then placed in the Flexstation (Molecular Devices) for 20 minutes at 37° C. Compounds were dissolved in 100% DMSO and diluted to desired concentrations with assay buffer and placed in the Flexstation simultaneously with the cell plate for 20 minute incubation at 37° C. prior to reading. Fluorescence intensity was measured immediately following compound addition (25 μL/well) on the Flexstation at an excitation wavelength of 485 nm and an emission wavelength of 525 with 515 nm auto cutoff. The resulting increase in fluorescence intensities corresponds to increases in intracellular Ca^2+ levels.
# Compounds were dissolved in 100% DMSO to a concentration of 20 mM to provide stock solutions. To determine activity against human GPR120, compounds were added with human GPR120 stably expressing cells (described above), at eight desired concentrations ranging from 0.00001 to 20 μM, in 96 well plates and fluorescence intensities were measured for 90 seconds with 2-second intervals. An EC50 value (concentration of the GPR120 agonist where 50% of the agonist's maximal activity is observed) was calculated using the changes (Max-Min) of fluorescence intensity.
# To determine percent activity for a tested compound, the fluorescence intensity value obtained at a particular concentration were compared to the maximal fluorescence intensity value obtained for reference compound GW9508 (4-[[(3-phenoxyphenyl)methyl]amino]benzene propanoic acid; British Journal of Pharmacology 2006 148, 619-628) or the compound of Example 25. When GW9508 was used as the reference compound, the maximal activity of GW9508 at 6.7 μM was designated as 100% activity. When the compound of Example 25 was used as the reference compound, the maximal activity of the compound of Example 25 at 2.5 μM was designated as 100% activity. Typically, the GW9508 activity reached a maximum at a concentration of approximately 6.7 μM and typically the compound of Example 25 reached a maximum activity at approximately 2.5 μM.
row,Structure (SMILES),% Activity (Ex. 25 Reference Compound) [%]
1,"CCc1cc(OCc2cccc3c2CC(C)(C)O3)ccc1CCC(=O)O [Example 140, 3-(4-((2,2-dimethyl-2,3-dihydrobenzofuran-4-yl)methoxy)-2-ethylphenyl)propanoic acid]",146.18
2,"CCc1c(CCC(=O)O)ccc(OCc2cc(F)cc3c2OC(C)(C)C3)c1F [Example 216, 3-(2-ethyl-3-fluoro-4-((5-fluoro-2,2-dimethyl-2,3-dihydrobenzofuran-7-yl)methoxy)phenyl)propanoic acid]",144.23
3,"Cc1nc2cccc(COc3c(F)cc(CC(C)C(=O)O)cc3F)c2o1 (stereo not drawn) [Example 261, 3-(3,5-difluoro-4-((2-methylbenzo[d]oxazol-7-yl)methoxy)phenyl)-2-methylpropanoic acid]",108.78
4,"CC1(C)Cc2cc(Cl)cc(COc3cc(F)c(CCC(=O)O)c(F)c3)c2O1 [Example 54, 3-(4-((5-chloro-2,2-dimethyl-2,3-dihydrobenzofuran-7-yl)methoxy)-2,6-difluorophenyl)propanoic acid]",138.97
5,"CC1(C)Cc2cc(F)cc(COc3ccc(CC(=O)O)cc3)c2O1 [Example 133, 2-(4-((5-fluoro-2,2-dimethyl-2,3-dihydrobenzofuran-7-yl)methoxy)phenyl)acetic acid]",103.4
6,"COc1cc(COc2ccc(CC(C)C(=O)O)cc2)c2c(c1)CC(C)(C)O2 (stereo not drawn) [Example 108, 3-(4-((5-methoxy-2,2-dimethyl-2,3-dihydrobenzofuran-7-yl)methoxy)phenyl)-2-methylpropanoic acid]",143.85
7,"CC(Cc1ccc(OCc2c(F)ccc3c2CC(C)(C)O3)cc1)C(=O)O (stereo not drawn) [Example 96, 3-(4-((5-fluoro-2,2-dimethyl-2,3-dihydrobenzofuran-4-yl)methoxy)phenyl)-2-methylpropanoic acid]",124.82
8,"CC1(C)Cc2cc(F)cc(CCc3ccc(OCC(=O)O)cc3)c2O1 [Example 70, 2-(4-(2-(5-fluoro-2,2-dimethyl-2,3-dihydrobenzofuran-7-yl)ethyl)phenoxy)acetic acid]",117.72
9,"CCc1cc(OCc2cc(F)cc3c2OC(C)(C)C3)c(F)cc1CCC(=O)O [Example 220, 3-(2-ethyl-5-fluoro-4-((5-fluoro-2,2-dimethyl-2,3-dihydrobenzofuran-7-yl)methoxy)phenyl)propanoic acid]",115.86
10,"CC1(C)Cc2c(ccc(F)c2COc2c(F)cc(C3CC3C(=O)O)cc2F)O1 (stereo not drawn) [Example 99, 2-(3,5-difluoro-4-((5-fluoro-2,2-dimethyl-2,3-dihydrobenzofuran-4-yl)methoxy)phenyl)cyclopropanecarboxylic acid]",101.53
11,"CC1(C)Cc2cc(F)cc(COc3ccc4c(CC(=O)O)cc(=O)oc4c3)c2O1 [Example 263, 2-(7-((5-fluoro-2,2-dimethyl-2,3-dihydrobenzofuran-7-yl)methoxy)-2-oxo-2H-chromen-4-yl)acetic acid]",5.98
12,"CC(Cc1ccc(COc2cccc3c2OC(C)(C)C3)c(F)c1)C(=O)O (stereo not drawn) [Example 44, 3-(4-(((2,2-dimethyl-2,3-dihydrobenzofuran-7-yl)oxy)methyl)-3-fluorophenyl)-2-methylpropanoic acid]",157.14

# Same assay, conditions: human GPR120 stably expressing cells, eight concentrations from 0.00001 to 20 μM
row,Structure (SMILES),EC50 [µM]
1,"CC1(C)Cc2cc(Cl)cc(COc3cc(F)c(CCC(=O)O)c(F)c3)c2O1 [Example 54, 3-(4-((5-chloro-2,2-dimethyl-2,3-dihydrobenzofuran-7-yl)methoxy)-2,6-difluorophenyl)propanoic acid]",1 to 10
2,"Cc1cc(OCc2cc(Cl)cc3c2OC(C)(C)C3)ccc1CCC(=O)O [Example 51, 3-(4-((5-chloro-2,2-dimethyl-2,3-dihydrobenzofuran-7-yl)methoxy)-2-methylphenyl)propanoic acid]",1 to 10
3,"CC(Cc1cc(F)c(OCc2ccc(C(F)(F)F)c3c2OC(C)(C)C3)c(F)c1)C(=O)O (stereo not drawn) [Example 32, 3-(4-((2,2-dimethyl-4-(trifluoromethyl)-2,3-dihydrobenzofuran-7-yl)methoxy)-3,5-difluorophenyl)-2-methylpropanoic acid]",1 to 10
